According to PMC11361989, “A simple HPLC–MS/MS method for the determination of polymyxin B in human plasma and its application in the pharmacokinetic study in elderly patients infected with multidrug-resistant Gram-negative bacteria” (Frontiers in Pharmacology, 2024):

What was measured:
[1] = Pharmacokinetic study of intravenous PB in elderly patients infected with multidrug-resistant Gram-negative bacteria; type: in vivo, human; settings: for AUCss, 24 h: elderly patients, steady state, first-order elimination-based equation, mean ± SD; for Ctrough: human, in vivo
Source text: This study was approved by the Medical Ethics Committee of Shandong Provincial Hospital (No. 2021–356). Written informed consent was obtained from all patients or their legal representatives. Herein, we included 14 elderly patients (65≤ Age ≤95) who received intravenous PB injections (polymyxin B sulfate for injection, Shanghai First Biochemical Pharmaceutical Co., Ltd.) in the period between April 2021 and January 2023 for treating infections caused by multidrug-resistant Gram-negative bacteria. These patients were divided into two groups: in the first group, eight patients received 100 mg loading dose combined with 75 mg maintenance dose q 12 h, and in the other group, six subjects received a 150-mg loading dose and a 100-mg maintenance dose q 12 h. The duration of the intravenous treatment was 1 h. The dosage for all patients was decided by the clinician according to the clinical response. Patients undergoing plasma exchange, continuous renal replacement therapy, or extracorporeal membrane oxygenation were excluded. Clinical and demographic data (age, gender, body weight, pathogens, infection sites, and PB-treatment history) were collected from electronic medical records. Laboratory data, including serum creatinine (Scr), estimated glomerular filtration rate (eGFR), and creatinine clearance (CrCL), were collected on the sampling day. CrCL was calculated using the Cockcroft–Gault equation. On the third day after the administration of the loading dose, blood samples were collected at pre-dose (0 h) and 0.5, 1, 2, 3, 6, 8, and 12 h after the start of administration using EDTA tubes and processed to obtain plasma samples. A total of 112 blood samples were collected and detected, and all of these were stored at −70°C. After analysis by the validated methods, PK parameters were calculated by non-compartmental analysis using Phoenix WinNonlin software 8.3 (Certara, United States).
After validation, the HPLC–MS/MS method was applied to the PK study of PB in elderly patients infected with multidrug-resistant Gram-negative bacteria. A total of 112 blood samples were collected from 14 elderly patients receiving intravenous PB treatment. […] The concentration of PB is the sum of the concentrations of PB1 and PB2 calculated, and it is based on the formula provided by [Liu et al. (2023)]. The individual AUCss, 24 h values were estimated using the first-order elimination-based equation method ([Begg et al., 1995]; [Pai et al., 2014]; [Liu et al., 2023]).

[2] = Stability of PB1 and PB2 in human plasma under different storage conditions; settings: human plasma: 24 h at room temperature (25°C), 24 h at 4°C (post preparative), three freeze–thaw cycles, 85 days at −70°C
Experimental: The stock solutions of the calibrators and quality control (QC) samples should be prepared separately in the same way. The PB stock solution for calibrators and QC samples was prepared in water (1% FA) at 400.48 μg/mL for PB1 and 40.84 μg/mL for PB2. Consequently, working solutions for construction of calibrators and QC were prepared by serially diluting the stock solution with a 1% aqueous solution of FA. The concentrations of the working solutions for calibrators were 10.01, 30.03, 50.05, 100.12, 150.18, and 200.24 μg/mL for PB1 and 1.02, 3.06, 5.10, 10.21, 15.31, and 20.42 μg/mL for PB2. The concentrations of working solutions for QCs were prepared at 20.02 μg/mL (LQC), 90.11 μg/mL (MQC), and 180.22 μg/mL (HQC) for PB1 and 2.04 μg/mL (LQC), 9.18 μg/mL (MQC), and 18.36 μg/mL (HQC) for PB2. The working solution of IS (10.00 μg/mL) was prepared using methanol. All the above solutions were stored at −70°C. The calibrators and QC samples were obtained by spiking 90 μL of blank plasma with 10 μL of working solution at the corresponding concentration. The standard curves were in the range of 1.00–20.02 μg/mL and 0.10–2.04 μg/mL for PB1 and PB2, respectively.
Typically, 100 μL of the plasma sample was mixed with 10 μL IS working solution, and then, 300 μL 0.1% FA in methanol was added to the sample for protein precipitation. The mixture was vortexed for 3 min and centrifuged in an Eppendorf 5415D microcentrifuge (Eppendorf, Hamburg, Germany) at 11,000 g rpm for 10 min. Subsequently, 200 μL of the supernatant was transferred into a clean polypropylene tube and diluted with 150 μL of 0.1% FA in water. The mixture solution was vortexed for 3 min and centrifuged at 11,000 rpm for 10 min using the same centrifuge. Finally, 200 μL of the supernatant was transferred into an injection bottle, and 10 μL was injected into the HPLC–MS/MS for analysis.
The stability of the working solutions of PB1 and PB2 was evaluated. The short-term stability and long-term stability of PB1 and PB2 in human plasma were evaluated under the following conditions: placed at room temperature or 4°C for 24 h, frozen and thawed three times, and stored at −70°C for 85 days. The stability evaluation was conducted for both LQC and HQC concentrations.

[3] = population PK, elderly patients; ref Wang et al., 2022; cited from earlier work
Source text: Compared to the administration of a fixed dose of PB, the administration of a body-weight-based dose of PB increases the efficacy of the antibiotic ([Sandri et al., 2013]; [Miglis et al., 2018]; [Tsuji et al., 2019]; [Wang et al., 2021a]). However, clinicians usually administer a fixed dose of PB due to challenges in obtaining accurate body weight information about critically ill patients. Moreover, fixed loading and maintenance doses of polymyxin B appear more appropriate than weight-based dosing regimens in patients within the 45–90-kg BW range ([Hanafin et al., 2023]). This study is the fir ...

[4] = Kidney function indicators (Scr, eGFR) during PB therapy; type: in vivo, human; settings: elderly patients, 100-mg maintenance dose, after an average of 3.83 days
Source text: This study was approved by the Medical Ethics Committee of Shandong Provincial Hospital (No. 2021–356). Written informed consent was obtained from all patients or their legal representatives. Herein, we included 14 elderly patients (65≤ Age ≤95) who received intravenous PB injections (polymyxin B sulfate for injection, Shanghai First Biochemical Pharmaceutical Co., Ltd.) in the period between April 2021 and January 2023 for treating infections caused by multidrug-resistant Gram-negative bacteria. […] CrCL was calculated using the Cockcroft–Gault equation. […] A total of 112 blood samples were collected and detected, and all of these were stored at −70°C. After analysis by the validated methods, PK parameters were calculated by non-compartmental analysis using Phoenix WinNonlin software 8.3 (Certara, United States).
The recommended AUCss, 24 h range of PB, which is based on the therapeutic window of the drug, is between 50 and 100 μg h/mL ([Tsuji et al., 2019]; [Liu et al., 2023]). […] To avoid the MS/MS crosstalk among the above-mentioned analytes undermining their detection sensitivity and quantitative accuracy, each analyte should be quantified with satisfactory chromatographic separation. […] However, crosstalk still should be measured in a high concentration level. […]

Q: For Polymyxin B [PB], which “AUCss, 24 h” value ([1]; maintenance 75 mg q12h, n = 8) is on record?
A: 117.70 ± 37.03 µg·h/mL

Q: And the “AUCss, 24 h” value ([1]; maintenance 100 mg q12h, n = 6)?
A: 152.73 ± 70.09 µg·h/mL

Q: And the Ctrough ([1]; 75 mg)?
A: 2650 ± 1320 ng/mL

Q: And the Ctrough ([1]; 100 mg)?
A: 3400 ± 1870 ng/mL

Q: What about the “Stability in human plasma (in words)” value [2] of the same substance?
A: stable

Q: And the “typical value of CL” value [3]?
A: 1.87 L/h

Q: And the “mean Scr value during therapy” value [4]?
A: 111.82 µmol/L

Q: And the “mean eGFR value during therapy” value [4]?
A: 66.00 mL/min
